These results are taken from ChEMBL document CHEMBL6114982, “Structural optimization and characterization of highly potent and selective STAT3 inhibitors for the treatment of triple negative breast cancer” (Eur J Med Chem, 2025).

Assay [1] relates to MDA-MB-231. Description: Downregulation of STAT3 phosphorylation level in human MDA-MB-231 cells preincubated for 48 hrs followed by IL-6 addition and measured after 2 hrs by Western blot analysis. As to conditions: dose 0.05-0.5 µM, time 50.0 hrs. In kind it is functional, cell-based. Background: A western blot detects proteins with antibodies after separation by electrophoresis.

Assay [2] concerns MDA-MB-231. Description: Effect on STAT3 expression in human MDA-MB-231 cells at 0.1 microM measured after 8 to 48 hrs by Western blot analysis. In kind it is functional, cell-based. As to conditions: time 8-48 hrs.
The subject of assay [3] is MDA-MB-231. The experiment in a line: Downregulation of CD44 expression in human MDA-MB-231 cells by Western blot analysis. In kind it is functional, cell-based.
In assay [4] the target is T1, Tyrosine-protein kinase JAK3 (Homo sapiens) (UniProt P52333).
T1 sequence (whole entry): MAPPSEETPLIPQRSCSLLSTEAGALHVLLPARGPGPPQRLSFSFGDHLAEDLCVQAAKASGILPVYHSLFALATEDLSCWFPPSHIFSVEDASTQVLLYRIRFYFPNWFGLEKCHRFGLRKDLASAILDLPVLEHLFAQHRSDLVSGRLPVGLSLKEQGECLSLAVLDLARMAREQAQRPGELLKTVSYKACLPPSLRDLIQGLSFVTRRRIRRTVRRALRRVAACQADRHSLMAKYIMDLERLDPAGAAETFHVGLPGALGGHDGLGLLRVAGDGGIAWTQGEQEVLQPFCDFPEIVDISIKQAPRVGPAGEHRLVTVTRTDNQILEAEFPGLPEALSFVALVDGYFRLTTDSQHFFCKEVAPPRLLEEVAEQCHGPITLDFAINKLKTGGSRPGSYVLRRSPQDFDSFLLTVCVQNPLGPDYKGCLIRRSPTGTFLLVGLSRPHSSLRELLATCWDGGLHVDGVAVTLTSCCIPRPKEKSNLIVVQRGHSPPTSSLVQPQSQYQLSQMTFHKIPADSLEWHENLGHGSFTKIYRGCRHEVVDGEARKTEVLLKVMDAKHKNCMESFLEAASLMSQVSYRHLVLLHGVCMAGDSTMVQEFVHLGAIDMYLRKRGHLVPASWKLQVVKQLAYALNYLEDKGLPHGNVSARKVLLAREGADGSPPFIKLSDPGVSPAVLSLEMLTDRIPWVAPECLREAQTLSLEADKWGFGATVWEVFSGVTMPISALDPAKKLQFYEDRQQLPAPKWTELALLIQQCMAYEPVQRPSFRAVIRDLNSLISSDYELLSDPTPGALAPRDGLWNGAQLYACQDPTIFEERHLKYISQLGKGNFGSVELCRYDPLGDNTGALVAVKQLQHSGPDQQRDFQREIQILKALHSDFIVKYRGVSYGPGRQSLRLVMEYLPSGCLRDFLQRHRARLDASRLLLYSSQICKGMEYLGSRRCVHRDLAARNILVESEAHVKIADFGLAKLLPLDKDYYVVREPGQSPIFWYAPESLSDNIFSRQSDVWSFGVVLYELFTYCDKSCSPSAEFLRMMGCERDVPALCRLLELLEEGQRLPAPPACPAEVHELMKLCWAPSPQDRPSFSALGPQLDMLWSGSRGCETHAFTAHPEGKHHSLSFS
Description: Inhibition of JAK3 (unknown origin) at upto 10 uM.

Active and inactive are the calls of the source. The rule behind the calls is not given here.

`COc1cccc(C(=O)Nc2sc3c(c2C#N)CCN(C(=O)Nc2ccccc2OC)C3)c1`: the Activity result in the assay on MDA-MB-231 [1] is “Dose-dependent-effect”; in the assay on MDA-MB-231 [2], “Active; Compound Showed Little Impact On Stat3 Expression”. Moreover, the outcome with MDA-MB-231 [3] was Active. Also, the inhibition entry in assay [4] is recorded as “Active; Compound Showed Little Inhibitory Effect”.
